Values of other authors as cited in paper PMC3068529 (Journal of the American Chemical Society, 2011).

Target: T1, TLR3 (Homo sapiens, UniProt O15455)
T1 sequence (O15455 24-904): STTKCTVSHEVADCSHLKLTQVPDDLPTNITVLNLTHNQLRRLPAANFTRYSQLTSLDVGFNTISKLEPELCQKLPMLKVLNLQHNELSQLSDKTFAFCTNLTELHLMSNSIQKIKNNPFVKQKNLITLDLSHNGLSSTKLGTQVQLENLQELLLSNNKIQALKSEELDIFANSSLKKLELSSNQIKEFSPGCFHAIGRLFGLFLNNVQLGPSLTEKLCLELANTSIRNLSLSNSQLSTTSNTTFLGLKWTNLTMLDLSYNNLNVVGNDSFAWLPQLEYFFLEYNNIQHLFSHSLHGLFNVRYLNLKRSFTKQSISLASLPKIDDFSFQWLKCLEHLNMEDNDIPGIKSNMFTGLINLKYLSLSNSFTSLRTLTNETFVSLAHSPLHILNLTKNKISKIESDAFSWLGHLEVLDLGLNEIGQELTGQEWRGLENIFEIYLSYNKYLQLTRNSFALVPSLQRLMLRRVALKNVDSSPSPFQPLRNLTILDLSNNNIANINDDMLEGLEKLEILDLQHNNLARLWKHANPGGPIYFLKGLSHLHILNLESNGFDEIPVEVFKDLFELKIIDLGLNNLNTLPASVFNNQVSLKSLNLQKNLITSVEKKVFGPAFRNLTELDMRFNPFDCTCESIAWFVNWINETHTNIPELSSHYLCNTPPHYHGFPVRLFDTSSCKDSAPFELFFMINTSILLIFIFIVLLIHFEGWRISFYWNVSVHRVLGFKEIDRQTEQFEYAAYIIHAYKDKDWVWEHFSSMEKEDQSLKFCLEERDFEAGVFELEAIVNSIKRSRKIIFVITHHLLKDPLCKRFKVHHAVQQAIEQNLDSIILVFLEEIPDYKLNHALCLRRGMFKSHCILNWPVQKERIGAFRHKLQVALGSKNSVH
Conditions: dsRNA binding to TLR3

polyriboinosinic:polyribocytidylic acid [dsRNA]
Kd: 19 ± 0.9 nM
